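Results reflect a 48-hour exposure of cells in 96-well plates to compound at five concentrations. GI50 = concentration required for 50% inhibition of growth.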 The source made the active and inactive calls. No stated cut-off is given here; in the data, active = GI50 up to about 1.1 µM and inactive = higher. Where a SMILES comes first, the peptide text is derived from it. [ ]: non-standard residue; d: D form. Hiv = CC(C)[C@H](O)C(=O)O
Key:
Experiment in all cases: NCI-60 cell line screen, 48 h
UACC-62 = test system: UACC-62
HOP-62 = test system: HOP-62
HCT-15 = test system: HCT-15
COLO 205 = test system: COLO 205
SF-295 = test system: SF-295
NCI-H460 = test system: NCI-H460
U-251 = test system: U-251
MDA-MB-435 = test system: MDA-MB-435
TK-10 = test system: TK-10
NCI-H522 = test system: NCI-H522
MDA-MB-231 = test system: MDA-MB-231
EKVX = test system: EKVX
SF-539 = test system: SF-539
786-0 = test system: 786-0
CCRF-CEM = test system: CCRF-CEM
HL-60 = test system: HL-60
HT-29 = test system: HT-29
K562 = test system: K562
BT-549 = test system: BT-549

Row | Structure (SMILES) | GI50 (UACC-62) | GI50 (HOP-62) | GI50 (HCT-15) | GI50 (COLO 205) | GI50 (SF-295) | GI50 (NCI-H460) | GI50 (U-251) | GI50 (MDA-MB-435) | GI50 (TK-10) | GI50 (NCI-H522) | GI50 (MDA-MB-231) | GI50 (EKVX) | GI50 (SF-539) | GI50 (786-0) | GI50 (CCRF-CEM) | GI50 (HL-60) | GI50 (HT-29) | GI50 (K562) | GI50 (BT-549)
1 | NC(Cc1ccccc1)C(=O)NC(Cc1ccccc1)NC(=O)C(Cc1c[nH]c2ccccc12)C(=O)O (stereo not drawn) | > 100 µM (inactive) | > 100 µM (inactive) | > 100 µM | > 100 µM (inactive) | > 100 µM (inactive) | > 100 µM (inactive) | > 100 µM (inactive) | > 100 µM (inactive) | > 100 µM (inactive) | > 100 µM (inactive) | > 100 µM (inactive) | > 100 µM (inactive) | > 100 µM (inactive) | > 100 µM (inactive) | > 100 µM (inactive) | > 100 µM (inactive) | > 100 µM (inactive) |  | 
2 | CCCC(=O)OC1CC(n2cc(F)c(=O)[nH]c2=O)OC1COP(=O)(OCC(Cl)(Cl)Cl)OCC(Cl)(Cl)Cl (stereo not drawn) | 2.06 µM (inactive) | 0.131 µM (active) | 22.1 µM | 0.0614 µM (active) | 0.167 µM (active) | 0.0351 µM (active) | 4.02 µM (inactive) | 18.2 µM (inactive) | 22.5 µM (inactive) | 5.51 µM (inactive) | 24.2 µM (inactive) | 43.8 µM (inactive) |  | 0.31 µM (active) | 0.372 µM (active) | 10.8 µM (inactive) | 13.7 µM (inactive) | > 10 µM (inactive) | 
3 | O=C1c2ccccc2CC12CCC1(CC2)OCCO1 | > 100 µM (inactive) | > 100 µM (inactive) | > 100 µM | > 100 µM (inactive) | > 100 µM (inactive) | > 100 µM (inactive) | > 100 µM (inactive) |  | > 100 µM (inactive) | > 100 µM (inactive) | > 100 µM (inactive) | > 100 µM (inactive) | > 100 µM (inactive) | > 100 µM (inactive) | > 100 µM (inactive) | > 100 µM (inactive) | > 100 µM (inactive) | > 100 µM (inactive) | > 100 µM (inactive)
4 | O=Cc1ccc2c(c1)CC1(Cc3ccccc3C1)C2 | 2.38 µM (inactive) | 16.1 µM (inactive) | 11.5 µM | 21.8 µM (inactive) | 31.3 µM (inactive) |  | 17.8 µM (inactive) | 16.7 µM (inactive) | 36.6 µM (inactive) | 48.4 µM (inactive) | 13.5 µM (inactive) | 15.3 µM (inactive) | 17.3 µM (inactive) | 14.2 µM (inactive) | 7.78 µM (inactive) | 19.4 µM (inactive) | 23.4 µM (inactive) | 22.1 µM (inactive) | 
5 | Cc1ccc(S(=O)(=O)C2CC2(Cl)Cl)cc1 (stereo not drawn) | 27.4 µM (inactive) |  | 23.4 µM | 21.6 µM (inactive) | 38.6 µM (inactive) | 50.1 µM (inactive) | > 100 µM (inactive) |  | > 100 µM (inactive) | 12.5 µM (inactive) |  | > 100 µM (inactive) | 31.4 µM (inactive) | 20.7 µM (inactive) | 11.1 µM (inactive) |  | 18.8 µM (inactive) | 26.5 µM (inactive) | 
6 | O=C(CSCC(=O)N/N=C/c1ccc(F)cc1)N/N=C/c1ccc(F)cc1 | > 100 µM (inactive) | > 100 µM (inactive) | > 100 µM | > 100 µM (inactive) |  | > 100 µM (inactive) | > 100 µM (inactive) |  | > 100 µM (inactive) | 65.9 µM (inactive) | > 100 µM (inactive) | > 100 µM (inactive) | > 100 µM (inactive) | > 100 µM (inactive) |  | > 100 µM (inactive) | > 100 µM (inactive) | 57.1 µM (inactive) | 
7 | CC(C)CC(O)P(=O)(O)O.NC1CCCCC1 (stereo not drawn) | > 100 µM (inactive) | > 100 µM (inactive) |  | > 100 µM (inactive) | > 100 µM (inactive) | > 100 µM (inactive) | > 100 µM (inactive) | > 100 µM (inactive) | > 100 µM (inactive) |  | > 100 µM (inactive) | > 100 µM (inactive) |  | > 100 µM (inactive) |  | > 100 µM (inactive) | > 100 µM (inactive) | > 100 µM (inactive) | 
8 | CCCCCCCCCCCCCCCCCCOCC(CCP(=O)(CP(=O)(O)O)Oc1ccccc1)OCCCCCCCCCCCCCCCCCC (stereo not drawn) | > 100 µM (inactive) | > 100 µM (inactive) | > 100 µM | > 100 µM (inactive) | > 100 µM (inactive) | > 100 µM (inactive) | > 100 µM (inactive) | > 100 µM (inactive) | > 100 µM (inactive) | > 100 µM (inactive) | > 100 µM (inactive) | > 100 µM (inactive) | > 100 µM (inactive) | > 100 µM (inactive) | > 100 µM (inactive) | > 100 µM (inactive) | > 100 µM (inactive) | > 100 µM (inactive) | 
9 | CC(Nc1ncc2c(n1)-c1ccccc1OC2)C(=O)O (stereo not drawn) | > 100 µM (inactive) | 51.6 µM (inactive) | 85.9 µM | 35.6 µM (inactive) | > 100 µM (inactive) | > 100 µM (inactive) | > 100 µM (inactive) | > 100 µM (inactive) | > 100 µM (inactive) |  | 92.7 µM (inactive) | 44.1 µM (inactive) | > 100 µM (inactive) | > 100 µM (inactive) | > 100 µM (inactive) | 6.89 µM (inactive) | 39.5 µM (inactive) | 99.8 µM (inactive) | 
10 | COP(=O)(OC)C(O)CC(C)C (stereo not drawn) | > 100 µM (inactive) | > 100 µM (inactive) |  | > 100 µM (inactive) | > 100 µM (inactive) | > 100 µM (inactive) | > 100 µM (inactive) | > 100 µM (inactive) | > 100 µM (inactive) |  | > 100 µM (inactive) | > 100 µM (inactive) |  | > 100 µM (inactive) |  | > 100 µM (inactive) | > 100 µM (inactive) | > 100 µM (inactive) | 
11 | CCOC(=O)C(NC(=O)CC(C)C)(NC(C)C)C(F)(F)F (stereo not drawn) |  | > 100 µM (inactive) | > 100 µM | > 100 µM (inactive) | > 100 µM (inactive) | > 100 µM (inactive) | > 100 µM (inactive) | > 100 µM (inactive) | > 100 µM (inactive) | > 100 µM (inactive) | > 100 µM (inactive) | > 100 µM (inactive) | > 100 µM (inactive) | > 100 µM (inactive) | > 100 µM (inactive) | > 100 µM (inactive) | > 100 µM (inactive) | > 100 µM (inactive) | 
12 | O=C(OCCN1CCCCC1)C(c1ccccc1)C1(O)CCSCC1 (stereo not drawn) | > 100 µM (inactive) | > 100 µM (inactive) | > 100 µM | > 100 µM (inactive) | > 100 µM (inactive) | > 100 µM (inactive) | > 100 µM (inactive) | > 100 µM (inactive) | > 100 µM (inactive) | > 100 µM (inactive) | > 100 µM (inactive) | > 100 µM (inactive) | > 100 µM (inactive) | > 100 µM (inactive) | > 100 µM (inactive) | > 100 µM (inactive) | > 100 µM (inactive) | > 100 µM (inactive) | 
13 | CN1c2ccccc2C(=O)Nc2cnc(Cl)nc21 | > 100 µM (inactive) | 31.1 µM (inactive) | > 100 µM | > 100 µM (inactive) | 46.3 µM (inactive) |  | 45.5 µM (inactive) | > 100 µM (inactive) | > 100 µM (inactive) | 64.6 µM (inactive) | 44.3 µM (inactive) | > 100 µM (inactive) | 49.1 µM (inactive) | 35.8 µM (inactive) | > 100 µM (inactive) | > 100 µM (inactive) | > 100 µM (inactive) | > 100 µM (inactive) | 
14 | COc1ccc2c(c1)c1c3c(ccc4ncn2c43)N(CCO)CCN=1 | 0.216 µM (active) | 0.132 µM (active) | 0.195 µM | 0.101 µM (active) | 0.19 µM (active) | 0.132 µM (active) | 0.254 µM (active) | 0.234 µM (active) | 0.389 µM (active) | 0.106 µM (active) | 0.183 µM (active) | 0.33 µM (active) | 0.0893 µM (active) | 0.0736 µM (active) | 0.0476 µM (active) | 0.165 µM (active) | 0.136 µM (active) | 0.0586 µM (active) | 
15 | CCOC(=O)c1sc2[n+](c1C)C(=O)/C(=C/c1ccc([N+](=O)[O-])cc1)S2 | 17.9 µM (inactive) | 20.7 µM (inactive) |  | 30.7 µM (inactive) | 18.5 µM (inactive) | 19.7 µM (inactive) | 17.3 µM (inactive) | 18 µM (inactive) | 20.6 µM (inactive) |  | 46.6 µM (inactive) |  | 21.2 µM (inactive) | 22.2 µM (inactive) | > 100 µM (inactive) | 75.7 µM (inactive) | 16.8 µM (inactive) | 20.9 µM (inactive) | 
16 | C/C(=N\NC(=O)c1ccncc1)c1cccc(F)c1 |  | > 10 µM (inactive) | > 10 µM | > 10 µM (inactive) | > 10 µM (inactive) | > 10 µM (inactive) | > 10 µM (inactive) |  | > 10 µM (inactive) |  |  |  | > 10 µM (inactive) | > 10 µM (inactive) | > 10 µM (inactive) | > 10 µM (inactive) |  | > 10 µM (inactive) | 
17 | CC(C)[C@@H]1OC(=O)[C@@H](C)NC(=O)[C@@H]2CCCN2C1=O (cyclo([Hiv]-Pro-[dA])) | > 100 µM (inactive) | > 100 µM (inactive) | > 100 µM | > 100 µM (inactive) | > 100 µM (inactive) | > 100 µM (inactive) |  | > 100 µM (inactive) | > 100 µM (inactive) |  | > 100 µM (inactive) | > 100 µM (inactive) | > 100 µM (inactive) | > 100 µM (inactive) | > 100 µM (inactive) | > 100 µM (inactive) | > 100 µM (inactive) |  | 
